Source: patent US6841169B2, “Stabilizer for pharmacons” (Rijksuniversiteit Groningen, priority 2001, dated 2005)

Columns and labels:
alkaline phosphatase = conditions: for Activity alkaline phosphatase after freeze-drying and 6 days at 0% RH and 60° C.: alkaline phosphatase to stabilizer 1 to 9, average of 4 independent experiments; for Activity alkaline phosphatase directly after freeze drying: alkaline phosphatase to stabilizer 1 to 9 by weight, average of 2 independent experiments
Experimental: Alkaline phosphatase with and without stabilizer was dissolved in a 0.05 M 2-amino-2-methyl-1,3-propanediol solution in water, pH 9.8. The concentration of alkaline phosphatase was 2.5 mg/mL in all cases. […] Trehalose and glucose were used as positive and negative control, respectively. The weight ratio of alkaline phosphatase to stabilizer was 1 to 9 in all cases. Of the solutions, 2 mL were transferred to glass sample vessels of a diameter of about 2 cm. The sample vessels were transferred to liquid nitrogen. After the solution had frozen completely, the sample vessels were transferred to a Christ freeze-drier, model Alpha 2-4, at a plate temperature of −30° C., followed by freeze-drying at a condenser temperature of −53° C. and a pressure of 0.220 mbar for 18 hours. Then, during 6 hours, the plate temperature and the pressure were gradually raised to 20° C. and 0.520 mbar, respectively. Thereafter the freeze-drying process was continued for 20 more hours.
Two series of experiments were carried out. In the first series, the samples were left to stand for 6 days at 0% relative humidity (RH) and 60° C., whereafter the activity of the protein was determined. In the second series of experiments, the samples were left to stand in an exsiccator above silica gel (0% RH) or in controlled-climate cabinets (45% and 60% RH) at 20° C. At different times, the activity of the protein was determined.
The activity of alkaline phosphatase was determined as follows. The freeze-dried samples were reconstituted with water. To 50 μl of the solution obtained, there were added 905 μL of a 0.05 M 2-amino-2-methyl-1,3-propanediol solution in water, pH 9.8, and 20 μL of a 100 mM MgCl2 solution in water. Next, 50 μL of a freshly prepared solution of 10 mg phosphatase substrate (para-nitrophenyl phosphate) per mL water were added. The mixture was vortexed and then incubated at 37° C. After 30 minutes, the reaction was stopped by addition of 5.0 mL of a 0.1 N solution of NaOH in water. The extinction of the solution obtained was measured at 405 nm. A calibration line was made using freshly prepared solutions of alkaline phosphatase in 0.05 M 2-amino-2-methyl-1,3-propanediol in water, pH 9.8, of known concentrations.

[1] = Storage of sugar glasses at 20° C. at raised relative air humidity (deliquescence); assay type: physicochemical; conditions: 45% relative air humidity
Source text: In practice, a sugar glass will never be completely anhydrous. This is for instance the consequence of uptake of water from the air. […] The extent of water uptake depends on the hygroscopicity of the material and of the relative degree of air humidity.

[2] = Freeze-drying at a sample temperature of −16° C. (cake formation); assay type: physicochemical; conditions: sample temperature −16° C.
Experimental: This last was tested in experiments with trehalose and inulin. Freeze-drying was done at a sample temperature of −16° C. […] Accordingly, inulin can be freeze-dried under less stringent conditions.

[3] = from scientific publications; cited from earlier work

## O=C[C@H](O)[C@@H](O)[C@H](O)[C@H](O)CO [Glucose]
Alkaline phosphatase
  Activity alkaline phosphatase after freeze-drying and 6 days at 0% RH and 60° C.: 0.8 ± 4.5%
  Activity alkaline phosphatase directly after freeze drying: 110.3 ± 10.6%
Alkaline phosphatase; freeze-dried samples, 4 weeks, 45% RH, 20° C.
  Activity of the protein after 4 weeks at 45% RH (in words): substantial decrease of the activity
Alkaline phosphatase; freeze-dried samples, 4 weeks, 45% RH, 20° C., FIG. II
  Activity of alkaline phosphatase after 4 weeks at 45% RH: 57.9±3.1%
Alkaline phosphatase; freeze-dried samples, 4 weeks, 60% RH, 20° C.
  Activity of the protein after 4 weeks at 60% RH (in words): substantial decrease of the activity
Alkaline phosphatase; freeze-dried samples, 4 weeks, 60% RH, 20° C., FIG. III
  Activity of alkaline phosphatase after four weeks at 60% RH: 46.3±16.1%
Alkaline phosphatase; freeze-dried samples
  Activity of the protein after 6 days of storage at 0% RH and 60° C. (in words): gone completely

## OC[C@H]1O[C@H](O[C@H]2O[C@H](CO)[C@@H](O)[C@H](O)[C@H]2O)[C@H](O)[C@@H](O)[C@@H]1O [Trehalose]
Alkaline phosphatase
  Activity alkaline phosphatase after freeze-drying and 6 days at 0% RH and 60° C.: −1.4 ± 2.8%
  Activity alkaline phosphatase directly after freeze drying: 95.9 ± 11.5%
Alkaline phosphatase; freeze-dried samples
  Activity of the protein after 6 days of storage at 0% RH and 60° C. (in words): gone completely
[1]
  Behaviour of glass exposed to relative air humidity of 45%: first deliquesced (that is, the Tg falls below 20° C.) and then crystallized
[2]
  Cake obtained on freeze-drying: collapsed cake
[3]
  Tg (glass transition temperature): ~120 °C
